Results on 4 compounds are retold here after PMC11173529, “Structure–Activity Relationship Studies in a Series of Xanthine Inhibitors of SLACK Potassium Channels” (Molecules, 2024).

The structures appear in SMILES notation.

The experiment addresses T1, SLICK (Homo sapiens, UniProt Q6UVM3).
T1 construct: expressed in transfected cells; host or cells: HEK293
T1 sequence (Q6UVM3 1-1135): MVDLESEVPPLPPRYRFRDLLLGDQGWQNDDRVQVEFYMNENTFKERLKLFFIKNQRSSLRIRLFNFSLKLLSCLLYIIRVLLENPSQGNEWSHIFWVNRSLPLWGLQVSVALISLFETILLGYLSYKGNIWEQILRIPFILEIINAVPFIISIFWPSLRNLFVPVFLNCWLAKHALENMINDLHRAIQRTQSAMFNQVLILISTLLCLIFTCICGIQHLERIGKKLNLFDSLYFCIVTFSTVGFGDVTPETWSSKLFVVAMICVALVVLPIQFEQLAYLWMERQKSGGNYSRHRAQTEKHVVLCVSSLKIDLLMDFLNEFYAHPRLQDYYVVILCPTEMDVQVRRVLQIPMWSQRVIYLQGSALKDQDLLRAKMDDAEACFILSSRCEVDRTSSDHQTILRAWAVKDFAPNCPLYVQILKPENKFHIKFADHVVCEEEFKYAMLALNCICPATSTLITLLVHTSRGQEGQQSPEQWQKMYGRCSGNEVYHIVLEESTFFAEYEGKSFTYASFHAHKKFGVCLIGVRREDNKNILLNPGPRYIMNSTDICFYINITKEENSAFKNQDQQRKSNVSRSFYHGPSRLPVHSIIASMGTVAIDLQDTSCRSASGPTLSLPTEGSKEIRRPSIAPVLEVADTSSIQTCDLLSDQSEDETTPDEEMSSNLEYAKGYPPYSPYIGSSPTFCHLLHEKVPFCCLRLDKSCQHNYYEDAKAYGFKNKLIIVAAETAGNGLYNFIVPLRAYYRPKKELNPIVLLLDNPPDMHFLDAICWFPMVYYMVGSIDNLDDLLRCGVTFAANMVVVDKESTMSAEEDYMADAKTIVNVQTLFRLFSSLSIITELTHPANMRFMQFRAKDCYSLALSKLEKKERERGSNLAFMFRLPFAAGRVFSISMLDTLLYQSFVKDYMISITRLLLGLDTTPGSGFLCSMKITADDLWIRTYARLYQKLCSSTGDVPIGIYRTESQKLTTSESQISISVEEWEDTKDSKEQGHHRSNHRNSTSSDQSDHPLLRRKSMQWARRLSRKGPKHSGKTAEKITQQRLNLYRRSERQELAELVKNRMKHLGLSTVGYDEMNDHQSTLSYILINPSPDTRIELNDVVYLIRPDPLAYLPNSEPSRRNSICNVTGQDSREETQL
The experiment in a line: Tl+-flux selectivity panel in HEK-293 cells: SLICK. The format is cell-based. The settings on record: HEK293, 10 µM test compound, relative to control SKF96365, read-out: Percent Inhibition ± SEM. How it is done:
With a handful of analogs that offered improved SLACK potency relative to hit compound 8, we next proceeded to investigate the ancillary pharmacology of such compounds, both with respect to other Slo family members as well as versus a spectrum of diverse ion channels (Table 5). Thus, we screened four compounds (32, 48, 70, and 71) at 10 µM in our in-house selectivity panel of Tl^+-flux assays in HEK-293 cells stably expressing the target of interest. […] Some valuable SAR was noted as well. […] Reduction of inhibition at Maxi-K α1/β4 also followed. This SAR will be important to bear in mind for continued optimization within this series. […] Of particular note is the lack of significant hERG activity in this series, as activity versus that counter-target has been an issue with other SLACK inhibitors.
Stably transfected monoclonal HEK293 cell lines expressing Slick, Maxi-K α1/β3, Maxi-K α1/β4, CaV3.2, GIRK 1/2, KV2.1, KV7.2, NaV1.7, and TASK-1 were generated as previously described. Stably transfected monoclonal HEK293 cell lines expressing hERG were generated as previously described. CHO-K1 cells expressing human Slack and disease-associated human Slack mutations, G288S and A934T, were generated by transfecting a PiggyBac TRE mammalian expression vector (VectorBuilder, Chicago, IL, USA) containing KCNT1. FuGENE 6 (Promega, Madison, WI, USA) transfection reagent and protocol, together with Opti-MEM (Thermo Fisher Scientific, Walkham, MA, USA), were utilized.
The Tl^+ flux assays were conducted as previously described with modifications optimized for individual cell lines as described below. Following removal of cell culture media, cells were loaded with Tl^+-sensitive dye loading solution containing Thallos-AM (ION Biosciences, San Marcos, TX, USA), 1.25 mM Probenecid, and 0.3% Pluronic F-127 (MilliporeSigma, Burlington, MA, USA), in assay buffer comprised of Hanks Balanced Salt Solution (HBSS) (Thermo Fisher Scientific, Waltham, MA, USA) and 20 mM HEPES (Corning, Corning, NY, USA) at room temperature for one-hour. Dye loading solution was replaced with 20 μL/well of assay buffer prior to assaying. Cell plates were then loaded onto a Panoptic kinetic imaging plate reader (WaveFront Biosciences, Franklin, TN, USA). Data were acquired at 5 Hz (excitation 482 ± 35 nm, emission 536 ± 40 nm) for 10 s, at which time 20 μL/well of test compounds in assay buffer at 2-fold above the desired final concentration was added and allowed to incubate for 120 s. Next, 10 μL/well of Tl^+ stimulus buffer (129 mM Na gluconate, 1.2 mM CaSO4, 1 MgSO4, 1 mM Na2HPO4, 4.17 mM NaHCO3, 5.56 mM glucose, 2.5 mM Tl2SO4, and 10 mM HEPES pH 7.3) was added. Imaging was concluded after an additional 120 s.
Turning to `CN(Cc1cccc(F)c1)c1nc2c(c(=O)n(Cc3ccccc3)c(=O)n2C)n1C` [Analog 48], the inhibition (as a rule, the relative decrease from the control value, in per cent) at 10 µM stood at 21 ± 3.1%.

`CCCCN(Cc1ccccc1)c1nc2c(c(=O)n(Cc3ccccc3)c(=O)n2C)n1C` [Analog 70]: the inhibition at 10 µM stood at 18 ± 4.2%.

For the compound `Cn1c(N(Cc2ccccc2)CC2CC2)nc2c1c(=O)n(Cc1ccccc1)c(=O)n2C` [Analog 71], the inhibition at 10 µM was 17 ± 2.5%.

With `COc1cccc(Cn2c(=O)c3c(nc(N(C)Cc4ccccc4)n3C)n(C)c2=O)c1` [Analog 32], the inhibition at 10 µM turned out to be 28 ± 5.5%.
